Test results published in patent US20250304973A1, “HIGH-AFFINITY THROMBIN APTAMERS AND METHODS OF USE” (Ayass Bioscience LLC, priority 2024, published 2025).
“Also recorded” adds a separate entry of the source.

Columns and labels:
[1] = system: Salmonella typhimurium strains TA98, TA100, TA1535, TA1537 and Escherichia coli strains wp2 [pKM101] and wp2 uvrA; assay: Ames test (Xenometrix Ames MPF PENTA I); type: cell-based; details: 0.5 uM to 10 uM; with and without S9
Method: 148. The mutagenic potential of AYA1809002 and AYA1809004 was evaluated using the Ames test with the Xenometrix Ames MPF PENTA I kit, including S9 and Positive Controls (Aniara Diagnostica, code: ACO1-512-S2-P; manufacturer's part number: C01-512-S2-P, West Chester Township, OH).
165. To assess the mutagenicity of the aptamers, we performed Ames test, a widely used assay for evaluating the mutagenicity of chemical compounds. The Ames test is a bac-terial reverse mutation assay that detects the ability of a substance to induce mutations in the DNA of certain strains of bacteria. It utilizes various bacterial strains, including Salmonella typhimurium strains TA98, TA100, TA1535, and TA1537, as well as the Escherichia coli strains wp2 [pKM101]and wp2 uvrA. To evaluate the mutagenic potential of an aptamer, amino acid-requiring bacterial organisms are exposed to different concentrations of the aptamer and mutagenic events are assessed by selecting for reversion events. In this context, the aptamers AYA1809002 and AYA1809004 were supplemented at increasing concentrations ranging from 0.5 uM to 10 uM.

rat whole blood = assay: Factor II activity, PT, APPT and TT in rat whole blood; type: biochemical; details: dose-dependent manner
thrombin = thrombin (Homo sapiens, UniProt P00734); assay: Thrombin inhibition IC50 (Table 3); type: biochemical; details: Table 3, AYA1809002
[2] = target: thrombin over other serine proteases (Homo sapiens, UniProt P00734); assay: Selectivity for thrombin over other serine proteases (Table 3); type: biochemical; details: Table 3, AYA1809002
[3] = Major bleeding rate in animal studies (Table 3); type: in vivo
[4] = Pharmacokinetics and renal clearance (Table 3); type: in vivo; details: Table 3, AYA1809002
[5] = Onset, consistency and reversal of anticoagulant effect (Table 3); type: in vivo; details: Table 3, AYA1809002
[6] = Storage stability (Table 3); type: physicochemical; details: after 24 months at room temperature

Row | Substance | mutagenicity (revertants) [1] | APPT in rat whole blood (rat whole blood) | Factor II activity in rat whole blood (rat whole blood) | PT in rat whole blood (rat whole blood) | TT in rat whole blood (rat whole blood) | IC50 (thrombin) [pM] | selectivity for thrombin over other serine proteases [2] | major bleeding rate [3] | Renal Clearance [4] [%] | Anticoagulant Effect Consistency: inter-individual variability in aPTT prolongation [5] [% inter-individual] | Onset of Action: peak effect [5] | activity maintained on storage [6]
1 | AYA1809002: ssDNA thrombin aptamer GCGGTGTTGCTGGGGTTGGGAGGTTGGAGGAAGCAATCGC | do not exhibit mutagenic properties; also recorded: did not exhibit mutagenic properties | extend | inhibit | extend | extend | ≤ 500 | >100-fold selectivity | (≤2% major bleeding | <50 | <15 | Peak effect withing 1 hour | Maintain >95%
2 | AYA1809004: ssDNA thrombin aptamer TCGTCAAGGTACGGTTGGGGGGGTGGGTGTTGACGTTGAA (DNA, backbone not given here) | do not exhibit mutagenic properties |  |  |  |  |  |  |  |  |  |  | 
